Test results: PubChem BioAssay (NCI)
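48-hour exposure; five concentrations; linearly interpolated endpoints. GI50: concentration for 50% inhibition of growth. TGI is the concentration that stops growth completely.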

Columns and labels:
Test in all cases: inhibition of tumour cell growth, NCI panel, 48 h
SF-268 CNS = tested on: SF-268 CNS
A498 renal = tested on: A498 renal
HS 578T breast = tested on: HS 578T breast
HOP-92 NSCLC = tested on: HOP-92 NSCLC
K-562 leukemia = tested on: K-562 leukemia
NCI-H23 lung = tested on: NCI-H23 lung
OVCAR-5 ovarian = tested on: OVCAR-5 ovarian
M14 melanoma = tested on: M14 melanoma
SK-MEL-5 melanoma = tested on: SK-MEL-5 melanoma
SNB-19 CNS = tested on: SNB-19 CNS
NCI/ADR-RES ovarian = tested on: NCI/ADR-RES ovarian
SNB-75 CNS = tested on: SNB-75 CNS
KM12 colon = tested on: KM12 colon
PC-3 prostate = tested on: PC-3 prostate
HCC-2998 colon = tested on: HCC-2998 colon
SK-OV-3 ovarian = tested on: SK-OV-3 ovarian
ACHN renal = tested on: ACHN renal
NCI-H460 lung = tested on: NCI-H460 lung
RPMI-8226 leukemia = tested on: RPMI-8226 leukemia
SF-295 CNS = tested on: SF-295 CNS
U251 CNS = tested on: U251 CNS
T-47D breast = tested on: T-47D breast
MALME-3M melanoma = tested on: MALME-3M melanoma
COLO 205 colon = tested on: COLO 205 colon
SK-MEL-28 melanoma = tested on: SK-MEL-28 melanoma
A549 NSCLC = tested on: A549 NSCLC
CAKI-1 renal = tested on: CAKI-1 renal
SF-539 CNS = tested on: SF-539 CNS
NCI-H226 lung = tested on: NCI-H226 lung
HCT-15 colon = tested on: HCT-15 colon
SN12C renal = tested on: SN12C renal
LOX IMVI melanoma = tested on: LOX IMVI melanoma
MDA-N = tested on: MDA-N
SR leukemia = tested on: SR leukemia
UACC-257 melanoma = tested on: UACC-257 melanoma
SK-MEL-2 melanoma = tested on: SK-MEL-2 melanoma
UACC-62 melanoma = tested on: UACC-62 melanoma
IGROV1 ovarian = tested on: IGROV1 ovarian
MDA-MB-231 breast = tested on: MDA-MB-231 breast
HCT-116 colon = tested on: HCT-116 colon
EKVX NSCLC = tested on: EKVX NSCLC
UO-31 renal = tested on: UO-31 renal
786-0 renal = tested on: 786-0 renal
MCF7 breast = tested on: MCF7 breast
HOP-62 NSCLC = tested on: HOP-62 NSCLC
HT29 colon = tested on: HT29 colon
RXF 393 renal = tested on: RXF 393 renal
SW-620 colon = tested on: SW-620 colon
BT-549 breast = tested on: BT-549 breast
TK-10 renal = tested on: TK-10 renal
OVCAR-3 ovarian = tested on: OVCAR-3 ovarian
MOLT-4 leukemia = tested on: MOLT-4 leukemia
OVCAR-4 ovarian = tested on: OVCAR-4 ovarian
NCI-H522 lung = tested on: NCI-H522 lung
MDA-MB-435 = tested on: MDA-MB-435
OVCAR-8 ovarian = tested on: OVCAR-8 ovarian
DU-145 prostate = tested on: DU-145 prostate

O=[N+]([O-])[O][Sn]([O][Sn]([O][N+](=O)[O-])([c]1ccccc1)[c]1ccccc1)([c]1ccccc1)[c]1ccccc1
GI50 (SF-268 CNS): > 100 µM | TGI (SF-268 CNS): > 100 µM | GI50 (A498 renal): > 100 µM | TGI (A498 renal): > 100 µM | GI50 (HS 578T breast): 47.1 µM | TGI (HS 578T breast): > 100 µM | GI50 (HOP-92 NSCLC): 38.6 µM | TGI (HOP-92 NSCLC): > 100 µM | GI50 (K-562 leukemia): > 100 µM | TGI (K-562 leukemia): > 100 µM | GI50 (NCI-H23 lung): > 100 µM | TGI (NCI-H23 lung): > 100 µM | GI50 (OVCAR-5 ovarian): > 100 µM | TGI (OVCAR-5 ovarian): > 100 µM | GI50 (M14 melanoma): > 100 µM | TGI (M14 melanoma): > 100 µM | GI50 (SK-MEL-5 melanoma): > 100 µM | TGI (SK-MEL-5 melanoma): > 100 µM | GI50 (SNB-19 CNS): > 100 µM | TGI (SNB-19 CNS): > 100 µM | GI50 (NCI/ADR-RES ovarian): > 100 µM | TGI (NCI/ADR-RES ovarian): > 100 µM | GI50 (SNB-75 CNS): > 100 µM | TGI (SNB-75 CNS): > 100 µM | GI50 (KM12 colon): > 100 µM | TGI (KM12 colon): > 100 µM | GI50 (PC-3 prostate): 63.2 µM | TGI (PC-3 prostate): > 100 µM | GI50 (HCC-2998 colon): > 100 µM | TGI (HCC-2998 colon): > 100 µM | GI50 (SK-OV-3 ovarian): > 100 µM | TGI (SK-OV-3 ovarian): > 100 µM | GI50 (ACHN renal): > 100 µM | TGI (ACHN renal): > 100 µM | GI50 (NCI-H460 lung): > 100 µM | TGI (NCI-H460 lung): > 100 µM | GI50 (RPMI-8226 leukemia): > 100 µM | TGI (RPMI-8226 leukemia): > 100 µM | GI50 (SF-295 CNS): > 100 µM | TGI (SF-295 CNS): > 100 µM | GI50 (U251 CNS): > 100 µM | TGI (U251 CNS): > 100 µM | GI50 (T-47D breast): > 100 µM | TGI (T-47D breast): > 100 µM | GI50 (MALME-3M melanoma): 79.3 µM | TGI (MALME-3M melanoma): > 100 µM | GI50 (COLO 205 colon): > 100 µM | TGI (COLO 205 colon): > 100 µM | GI50 (SK-MEL-28 melanoma): > 100 µM | TGI (SK-MEL-28 melanoma): > 100 µM | GI50 (A549 NSCLC): > 100 µM | TGI (A549 NSCLC): > 100 µM | GI50 (CAKI-1 renal): > 100 µM | TGI (CAKI-1 renal): > 100 µM | GI50 (SF-539 CNS): > 100 µM | TGI (SF-539 CNS): > 100 µM | GI50 (NCI-H226 lung): > 100 µM | TGI (NCI-H226 lung): > 100 µM | GI50 (HCT-15 colon): > 100 µM | TGI (HCT-15 colon): > 100 µM | GI50 (SN12C renal): > 100 µM | TGI (SN12C renal): > 100 µM | GI50 (LOX IMVI melanoma): 83.4 µM | TGI (LOX IMVI melanoma): > 100 µM | GI50 (MDA-N): > 100 µM | TGI (MDA-N): > 100 µM | GI50 (SR leukemia): > 100 µM | TGI (SR leukemia): > 100 µM | GI50 (UACC-257 melanoma): > 100 µM | TGI (UACC-257 melanoma): > 100 µM | GI50 (SK-MEL-2 melanoma): > 100 µM | TGI (SK-MEL-2 melanoma): > 100 µM | GI50 (UACC-62 melanoma): 53.6 µM | TGI (UACC-62 melanoma): > 100 µM | GI50 (IGROV1 ovarian): 72.8 µM | TGI (IGROV1 ovarian): > 100 µM | GI50 (MDA-MB-231 breast): > 100 µM | TGI (MDA-MB-231 breast): > 100 µM | GI50 (HCT-116 colon): > 100 µM | TGI (HCT-116 colon): > 100 µM | GI50 (EKVX NSCLC): > 100 µM | TGI (EKVX NSCLC): > 100 µM | GI50 (UO-31 renal): > 100 µM | TGI (UO-31 renal): > 100 µM | GI50 (786-0 renal): > 100 µM | TGI (786-0 renal): > 100 µM | GI50 (MCF7 breast): > 100 µM | TGI (MCF7 breast): > 100 µM | GI50 (HOP-62 NSCLC): > 100 µM | TGI (HOP-62 NSCLC): > 100 µM | GI50 (HT29 colon): > 100 µM | TGI (HT29 colon): > 100 µM | GI50 (RXF 393 renal): > 100 µM | TGI (RXF 393 renal): > 100 µM | GI50 (SW-620 colon): > 100 µM | TGI (SW-620 colon): > 100 µM | GI50 (BT-549 breast): > 100 µM | TGI (BT-549 breast): > 100 µM | GI50 (TK-10 renal): > 100 µM | TGI (TK-10 renal): > 100 µM | GI50 (OVCAR-3 ovarian): > 100 µM | TGI (OVCAR-3 ovarian): > 100 µM | GI50 (MOLT-4 leukemia): > 100 µM | TGI (MOLT-4 leukemia): > 100 µM | GI50 (OVCAR-4 ovarian): > 100 µM | TGI (OVCAR-4 ovarian): > 100 µM | GI50 (NCI-H522 lung): 23.1 µM | TGI (NCI-H522 lung): > 100 µM | GI50 (MDA-MB-435): > 100 µM | TGI (MDA-MB-435): > 100 µM | GI50 (OVCAR-8 ovarian): > 100 µM | TGI (OVCAR-8 ovarian): > 100 µM | GI50 (DU-145 prostate): > 100 µM | TGI (DU-145 prostate): > 100 µM
